Assay results published in patent US9822104B2, “Taxifolin derivative with superior antioxidant effect and cosmetic composition containing the same” (Yeomyung Biochem Co., Ltd, priority 2015, dated 2017).
Values belong to the molecule of their own block, whether it stands above or below them.

Experiments:
[1] = DPPH radical scavenging assay; format: biochemical; details: for Antioxidative activity (IC50 mg/mL): DPPH radical scavenging, absorbance at 517 nm, reacted in the dark one hour, repeated three times, Table 1; for IC50 of DPPH radical scavenging activity: FIGS. 15A and 15B
Experimental: The antioxidant effect of synthesized taxifolin derivative was measured using a DPPH(1,1-diphenyl-2-picrylhydrazyl) radical (Blois M S. 1958. Antioxidant determination by the use of a stable free radical. Nature 25: 1199-1120). For measurement, different concentrations of 0.1 mL of the synthesized taxifolin derivatives were prepared and then mixed with 2.5 mL of ethanol. 0.5 mL of a 0.2 mM DPPH solution was added to the resulting mixture and reacted in the dark for one hour. Then, the absorbance of the reaction product was measured at 517 nm using a UV/Vis-spectrophotometer (BIO-RAD, USA). All tests were repeated three times, methanol was used as a blank sample and DPPH radical effect was calculated in accordance with the following Equation 1. DPPH radical scavenging activity was represented by IC50 (the concentration required for 50% inhibition). Scavenging effect (%)=(A−B)/A×100 [Equation 1]
where A=absorbance at 517 nm without test sample
where B=absorbance at 517 nm with test sample

[2] = FRAP assay (ferric reducing ability); format: biochemical; details: for FRAP value: 37° C. for 10 minutes, absorbance at 593 nm, FeSO4 calibration, ascorbic acid control at 1 mg/mL, Table 2
Experimental: FRAP assay of the samples was conducted by slightly modifying the method of Benzie and Strain (Benzie I F F, Strain J J. 1996. The ferric reducing ability of plasma (FRAP) as a measure of “Antioxidant power”: The FRAP assay. Anal Biochem 230: 70-79). The FRAP reagent was prepared by heating 25 mL acetate buffer (300 mM, pH 3.6) at 37′ C and adding a solution of 5 mL of 10 mM 2,4,6-tris(2-pyridyl)-s-triazine (TPTZ, Sigma) and 2.5 mL of 20 mM […] in 40 mM HCl thereto. 0.03 mL of the sample (Example 1 or Example 2) and 0.09 mL of distilled water were added to 0.9 mL of the prepared FRAP reagent, reaction was proceeded at 37° C. for 10 minutes and absorbance at 593 nm was measured using a spectrophotometer (Benchmark PLUS Bio-Rad). Distilled water, instead of the sample, was used as the blank. 1 mg/mL of ascorbic acid was used as a control group. A calibration equation for FeSO4 made by repetition at different concentrations of 0.125, 0.25, 0.5, 1 and 2 mM was obtained and measurement values of the samples were converted to FRAP values by applying the measurement values thereto. All measurements were repeated three times.

Antioxidative activity (IC50 mg/mL) [1]: 515.77 ± 5.41 mg/mL
IC50 of DPPH radical scavenging activity [1]: about 250 mg/ml
SMILES: O=C(O)CCCC[C@@H]1CCSS1 (racemic) [Lipoic acid]
FRAP value [2]: 1.14 ± 0.019 mM

Antioxidative activity (IC50 mg/mL) [1]: 3.22 ± 0.05 mg/mL
SMILES: OCCCCCC1CCSS1 (stereo not drawn) [Lipoic alcohol]
FRAP value [2]: 1.24 ± 0.007 mM

IC50 of DPPH radical scavenging activity [1]: about 2,000 mg/ml
SMILES: CC1(C)SCCC(CCCCC(=O)O)S1 (stereo not drawn) [Lipoic acid (dithiol protection), 5-(2,2-dimethyl-1,3-dithian-4-yl)pentanoic acid]
FRAP value [2]: 0.74 ± 0.006 mM

Further lines, the molecule ahead of its results:

SMILES: O=C(CCCCC1CCSS1)Oc1cc(OC(=O)CCCCC2CCSS2)c2c(c1)OC(c1ccc(OC(=O)CCCCC3CCSS3)c(OC(=O)CCCCC3CCSS3)c1)C(OC(=O)CCCCC1CCSS1)C2=O (stereo not drawn) [Taxifolin penta lipoate, 2-(3,4-bis(5-(1,2-dithiolan-3-yl)pentanoyloxy)phenyl)-4-oxochroman-3,5,7-triyl tris(5-(1,2-dithiolan-3-yl)pentanoate)]
IC50 of DPPH radical scavenging activity [1]: 220 ± 3 µg/mL
IC50 of DPPH radical scavenging activity ([1]; listed as Example 2): very low IC50
FRAP value [2]: 3.57 ± 0.146 mM
FRAP value, ranking in words ([2]; FIG. 16, comparison among the samples): next highest value

SMILES: O=C1O[C@H]([C@@H](O)CO)C(O)=C1O [Ascorbic acid, ascorbic acid]
FRAP value [2]: 3.7 ± 0.007 mM
